Source: the OligoGym collection
“And” between values parts separate entries of the source, which are not always exact repeats. Equal entries are not always repeated. HELM strings list units from the 5' end as sugar, base in round brackets, then linkage (d deoxyribose, r ribose, m 2'-O-methyl, p phosphodiester). Methylation of C is not given here. [moe] = 2'-O-(2-methoxyethyl) (MOE); [cEt] = constrained ethyl (cEt); [sp] = phosphorothioate linkage

Target: HBV
Conditions: ASO

Substance	target mRNA inhibition (HepG2, 0.07 µM)	other results
RNA1{[moe](G)[sp].[cEt](A)[sp].d(G)[sp].d(A)[sp].d(G)[sp].d(A)[sp].d(A)[sp].d(G)[sp].d(T)[sp].d(C)[sp].d(C)[sp].d(A)[sp].[cEt](C)[sp].[moe](C)[sp].[cEt](A)[sp].[moe](C)}$$$$V2.0	42% and 56%	–
RNA1{[moe](G)[sp].[cEt](A)[sp].d(T)[sp].d(G)[sp].d(A)[sp].d(G)[sp].d(G)[sp].d(C)[sp].d(A)[sp].d(T)[sp].d(A)[sp].d(G)[sp].[cEt](C)[sp].[moe](A)[sp].[cEt](G)[sp].[moe](C)}$$$$V2.0	70% and 66%	–
RNA1{[moe](G)[sp].[cEt](C)[sp].[cEt](A)[sp].d(G)[sp].d(A)[sp].d(G)[sp].d(G)[sp].d(T)[sp].d(G)[sp].d(A)[sp].d(A)[sp].d(G)[sp].d(C)[sp].[cEt](G)[sp].[cEt](A)[sp].[moe](A)}$$$$V2.0	70%	–
RNA1{[moe](G)[sp].[cEt](C)[sp].d(A)[sp].d(T)[sp].d(A)[sp].d(G)[sp].d(C)[sp].d(A)[sp].d(G)[sp].d(C)[sp].d(A)[sp].d(G)[sp].[cEt](G)[sp].[moe](A)[sp].[cEt](T)[sp].[moe](G)}$$$$V2.0	76% and 78%	–
RNA1{[moe](G)[sp].[cEt](G)[sp].[cEt](C)[sp].d(A)[sp].d(C)[sp].d(A)[sp].d(G)[sp].d(C)[sp].d(T)[sp].d(T)[sp].d(G)[sp].d(G)[sp].d(A)[sp].[cEt](G)[sp].[cEt](G)[sp].[moe](C)}$$$$V2.0	36% and 39%	–
RNA1{[moe](G)[sp].[cEt](T)[sp].[cEt](G)[sp].d(A)[sp].d(A)[sp].d(G)[sp].d(C)[sp].d(G)[sp].d(A)[sp].d(A)[sp].d(G)[sp].d(T)[sp].d(G)[sp].[cEt](C)[sp].[cEt](A)[sp].[moe](C)}$$$$V2.0	68% and 75%	–
RNA1{[moe](G)[sp].[cEt](T)[sp].d(C)[sp].d(C)[sp].d(A)[sp].d(C)[sp].d(C)[sp].d(A)[sp].d(C)[sp].d(G)[sp].d(A)[sp].d(G)[sp].[cEt](T)[sp].[moe](C)[sp].[cEt](T)[sp].[moe](A)}$$$$V2.0	51% and 38%	–
RNA1{[moe](G)[sp].[cEt](T)[sp].d(G)[sp].d(A)[sp].d(A)[sp].d(G)[sp].d(C)[sp].d(G)[sp].d(A)[sp].d(A)[sp].d(G)[sp].d(T)[sp].[cEt](G)[sp].[moe](C)[sp].[cEt](A)[sp].[moe](C)}$$$$V2.0	81% and 80%	target mRNA inhibition (HepG2, 0.0092593 µM): 18%; target mRNA inhibition (HepG2, 0.0277778 µM): 36%; target mRNA inhibition (HepG2, 0.0833333 µM): 75%; target mRNA inhibition (HepG2, 0.25 µM): 88%
RNA1{[moe](G)[sp].[cEt](T)[sp].d(G)[sp].d(C)[sp].d(A)[sp].d(G)[sp].d(A)[sp].d(G)[sp].d(G)[sp].d(T)[sp].d(G)[sp].d(A)[sp].[cEt](A)[sp].[moe](G)[sp].[cEt](C)[sp].[moe](G)}$$$$V2.0	74% and 83%	target mRNA inhibition (HepG2, 0.0092593 µM): 14%; target mRNA inhibition (HepG2, 0.0277778 µM): 33%; target mRNA inhibition (HepG2, 0.0833333 µM): 70%; target mRNA inhibition (HepG2, 0.25 µM): 77%
RNA1{[moe](G)[sp].[moe](A)[sp].[moe](A)[sp].[moe](C)[sp].[moe](C)[sp].[moe](A)[sp].d(C)[sp].d(T)[sp].d(G)[sp].d(A)[sp].d(A)[sp].d(C)[sp].d(A)[sp].d(A)[sp].d(A)[sp].[moe](T)[sp].[moe](G)}$$$$V2.0	53% and 43%	–
RNA1{[moe](G)[sp].[moe](A)[sp].[moe](A)[sp].[moe](C)[sp].[moe](T)[sp].[moe](G)[sp].d(G)[sp].d(A)[sp].d(G)[sp].d(C)[sp].d(C)[sp].d(A)[sp].d(C)[sp].d(C)[sp].d(A)[sp].[moe](G)[sp].[moe](C)}$$$$V2.0	55% and 48%	–
RNA1{[moe](G)[sp].[moe](A)[sp].[moe](A)[sp].[moe](C)[sp].d(C)[sp].d(A)[sp].d(C)[sp].d(T)[sp].d(G)[sp].d(A)[sp].d(A)[sp].d(C)[sp].d(A)[sp].[moe](A)[sp].[moe](A)[sp].[moe](T)[sp].[moe](G)}$$$$V2.0	33% and 45%	–
RNA1{[moe](G)[sp].[moe](A)[sp].[moe](A)[sp].[moe](C)[sp].d(T)[sp].d(G)[sp].d(G)[sp].d(A)[sp].d(G)[sp].d(C)[sp].d(C)[sp].d(A)[sp].d(C)[sp].[moe](C)[sp].[moe](A)[sp].[moe](G)}$$$$V2.0	46% and 53%	–
RNA1{[moe](G)[sp].[moe](A)[sp].[moe](A)[sp].[moe](G)[sp].[moe](C)[sp].d(G)[sp].d(A)[sp].d(A)[sp].d(G)[sp].d(T)[sp].d(G)[sp].d(C)[sp].d(A)[sp].d(C)[sp].[moe](A)[sp].[moe](C)}$$$$V2.0	70% and 67%	–
RNA1{[moe](G)[sp].[moe](A)[sp].[moe](A)[sp].[moe](G)[sp].d(C)[sp].d(G)[sp].d(A)[sp].d(A)[sp].d(G)[sp].d(T)[sp].d(G)[sp].d(C)[sp].d(A)[sp].[moe](C)[sp].[moe](A)[sp].[moe](C)}$$$$V2.0	48% and 59%	–
RNA1{[moe](G)[sp].[moe](A)[sp].[moe](A)[sp].[moe](G)[sp].d(T)[sp].d(C)[sp].d(C)[sp].d(A)[sp].d(C)[sp].d(C)[sp].d(A)[sp].d(C)[sp].d(G)[sp].[moe](A)[sp].[moe](G)[sp].[moe](T)[sp].[moe](C)}$$$$V2.0	48% and 36%	–
RNA1{[moe](G)[sp].[moe](A)[sp].[moe](A)[sp].d(C)[sp].d(A)[sp].d(A)[sp].d(A)[sp].d(T)[sp].d(G)[sp].d(G)[sp].d(C)[sp].d(A)[sp].d(C)[sp].[cEt](T)[sp].[cEt](A)[sp].[cEt](G)}$$$$V2.0	80% and 81%	target mRNA inhibition (HepG2, 0.0092593 µM): 15%; target mRNA inhibition (HepG2, 0.0277778 µM): 40%; target mRNA inhibition (HepG2, 0.0833333 µM): 69%; target mRNA inhibition (HepG2, 0.25 µM): 86%
RNA1{[moe](G)[sp].[moe](A)[sp].[moe](A)[sp].d(C)[sp].d(T)[sp].d(G)[sp].d(G)[sp].d(A)[sp].d(G)[sp].d(C)[sp].d(C)[sp].d(A)[sp].[moe](C)[sp].[moe](C)[sp].[moe](A)[sp].[moe](G)}$$$$V2.0	51% and 39%	–
RNA1{[moe](G)[sp].[moe](A)[sp].[moe](A)[sp].d(G)[sp].d(C)[sp].d(G)[sp].d(A)[sp].d(A)[sp].d(G)[sp].d(T)[sp].d(G)[sp].d(C)[sp].[moe](A)[sp].[moe](C)[sp].[moe](A)[sp].[moe](C)[sp].[moe](G)}$$$$V2.0	76% and 60%	–
RNA1{[moe](G)[sp].[moe](A)[sp].[moe](G)[sp].[cEt](G)[sp].[cEt](T)[sp].d(G)[sp].d(A)[sp].d(A)[sp].d(G)[sp].d(C)[sp].d(G)[sp].d(A)[sp].[cEt](A)[sp].[cEt](G)[sp].[moe](T)[sp].[moe](G)[sp].[moe](C)}$$$$V2.0	–	target mRNA inhibition (HepG2, 0.009375 µM): 19%; target mRNA inhibition (HepG2, 0.01875 µM): 27%; target mRNA inhibition (HepG2, 0.0375 µM): 35%; target mRNA inhibition (HepG2, 0.075 µM): 48%; target mRNA inhibition (HepG2, 0.15 µM): 50%; target mRNA inhibition (HepG2, 0.3 µM): 63%
RNA1{[moe](G)[sp].[moe](A)[sp].[moe](G)[sp].[cEt](G)[sp].d(T)[sp].d(G)[sp].d(A)[sp].d(A)[sp].d(G)[sp].d(C)[sp].d(G)[sp].d(A)[sp].d(A)[sp].[cEt](G)[sp].[moe](T)[sp].[moe](G)[sp].[moe](C)}$$$$V2.0	–	target mRNA inhibition (HepG2, 0.009375 µM): 22%; target mRNA inhibition (HepG2, 0.01875 µM): 25%; target mRNA inhibition (HepG2, 0.0375 µM): 50%; target mRNA inhibition (HepG2, 0.075 µM): 69%; target mRNA inhibition (HepG2, 0.15 µM): 76%; target mRNA inhibition (HepG2, 0.3 µM): 88%
RNA1{[moe](G)[sp].[moe](A)[sp].[moe](G)[sp].[moe](A)[sp].[moe](A)[sp].d(G)[sp].d(T)[sp].d(C)[sp].d(C)[sp].d(A)[sp].d(C)[sp].d(C)[sp].d(A)[sp].d(C)[sp].[moe](G)[sp].[moe](A)[sp].[moe](G)}$$$$V2.0	20% and 13%	–
RNA1{[moe](G)[sp].[moe](A)[sp].[moe](G)[sp].[moe](G)[sp].[moe](C)[sp].[moe](A)[sp].d(T)[sp].d(A)[sp].d(G)[sp].d(C)[sp].d(A)[sp].d(G)[sp].d(C)[sp].d(A)[sp].d(G)[sp].[moe](G)[sp].[moe](A)}$$$$V2.0	61% and 45%	–
RNA1{[moe](G)[sp].[moe](A)[sp].[moe](G)[sp].[moe](G)[sp].[moe](C)[sp].d(A)[sp].d(T)[sp].d(A)[sp].d(G)[sp].d(C)[sp].d(A)[sp].d(G)[sp].d(C)[sp].d(A)[sp].[moe](G)[sp].[moe](G)[sp].[moe](A)}$$$$V2.0	47% and 43%	–
RNA1{[moe](G)[sp].[moe](A)[sp].[moe](G)[sp].[moe](G)[sp].d(T)[sp].d(G)[sp].d(A)[sp].d(A)[sp].d(G)[sp].d(C)[sp].d(G)[sp].d(A)[sp].d(A)[sp].[moe](G)[sp].[moe](T)[sp].[moe](G)}$$$$V2.0	14% and 26%	–
RNA1{[moe](G)[sp].[moe](A)[sp].[moe](G)[sp].[moe](T)[sp].d(T)[sp].d(C)[sp].d(C)[sp].d(G)[sp].d(C)[sp].d(A)[sp].d(G)[sp].d(T)[sp].d(A)[sp].[moe](T)[sp].[moe](G)[sp].[moe](G)[sp].[moe](A)}$$$$V2.0	62% and 51%	–
RNA1{[moe](G)[sp].[moe](A)[sp].[moe](G)[sp].d(A)[sp].d(A)[sp].d(G)[sp].d(T)[sp].d(C)[sp].d(C)[sp].d(A)[sp].d(C)[sp].d(C)[sp].[moe](A)[sp].[moe](C)[sp].[moe](G)[sp].[moe](A)[sp].[moe](G)}$$$$V2.0	31% and 28%	–
RNA1{[moe](G)[sp].[moe](A)[sp].[moe](G)[sp].d(G)[sp].d(C)[sp].d(A)[sp].d(T)[sp].d(A)[sp].d(G)[sp].d(C)[sp].d(A)[sp].d(G)[sp].d(C)[sp].[cEt](A)[sp].[cEt](G)[sp].[cEt](G)}$$$$V2.0	75% and 74%	–
RNA1{[moe](G)[sp].[moe](A)[sp].[moe](T)[sp].[moe](G)[sp].d(A)[sp].d(G)[sp].d(G)[sp].d(C)[sp].d(A)[sp].d(T)[sp].d(A)[sp].d(G)[sp].d(C)[sp].[moe](A)[sp].[moe](G)[sp].[moe](C)}$$$$V2.0	34% and 35%	–
RNA1{[moe](G)[sp].[moe](A)[sp].[moe](T)[sp].d(G)[sp].d(A)[sp].d(G)[sp].d(G)[sp].d(C)[sp].d(A)[sp].d(T)[sp].d(A)[sp].d(G)[sp].d(C)[sp].[cEt](A)[sp].[cEt](G)[sp].[cEt](C)}$$$$V2.0	56% and 66%	–
